Data from patent US9574174B2, “Cell culture” (PLASTICELL LIMITED, priority 2002, dated 2017).

Columns and labels:
mouse ES cells = experiment: RT-PCR detection of differential gene expression in ES cell units after split-split culture; format: cell-based; details: DMEM, 1 μM, FIG. 11
Method: Pluripotent mouse ES cell units were cultured for five days in ES cell medium (see example 3), the ES medium was decanted and the cell units washed twice with PBS to remove traces of ES medium. The bead population was split into three groups, and the PBS decanted and replaced with one of (i) ES cell medium; (ii) Dulbecco's modified Eagle's medium (DMEM) with 10% fetal calf serum; or (iii) Chemically Defined Medium (CDM; Wiles M V, Johansson B M, 1999, Exp. Cell Res., vol 247, p. 241-8). After one hour culture under standard conditions, each of the three groups were split into three further groups, each of which was incubated in one of: (i) the medium in which the cell groups were cultured; the medium in which the cell groups were cultured including 1 μM LiCl; or (iii) the medium in which the cell groups were cultured including 1 μm retinoic acid (RA). Every other day half the medium was replaced with the respective fresh medium.
Cell units of mouse ES cells induced to differentiate by split-split culture (see example 4) were washed with PBS, and RNA prepared from the cell units using Rneasy reagents according to manufacturer's instructions (Qiagen). RNA samples were then used to prepare first strand cDNA with oligo-dT priming using reverse transcriptase according to the manufacturer's instructions (Invitrogen). […]

[1] = tested on: cytochrome P450 (CyP450) metabolic enzymes; experiment: CyP450 ethoxyresorufin assay on HepG2 cell units; format: cell-based, human
Method: A split-pool culture experiment was performed in order to assay tissue culture conditions that might affect a particular cellular process, namely the expression and/or activity of cytochrome P450 (CyP450) metabolic enzymes. Members of this class of enzyme, such as 1A1 and 1A2, can be assayed with the use of a substrate, ethoxyresorufin, that is enzymatically hydrolyzed to produce a product, resorufin, that has distinct fluorescence characteristics that can be used to measure CyP450 enzyme activity. The expression of CyP450 enzymes can be regulated by inducer molecules, such as β-naphthoflavone, and inhibitors such as α-naphthoflavone, quinidine, or aminotriazole. It is also possible for some molecules to induce expression of a CyP450 gene(s), but inhibit activity of the enzyme product of that gene. Therefore, complicated patterns of expression and activity can arise according to the pattern of serial exposure of cells to regulatory compounds. […]
For the CyP450 assay, aliquots of beads in growth medium were removed and the enzyme substrate ethoxyresorufin was added to a final concentration of 10 μM. The samples of beads were placed on a microscope slide with a cover slip, and observed immediately with an epifluorescent microscope using a standard filter set for Texas Red/rhodamine fluorescence (see FIG. 9). […]

SMILES	decrease in Oct4 (mouse ES cells)	P450 level / conversion of ethoxyresorufin to fluorescent product ([1]; HepG2 cell units following a split pool experiment, FIG. 9 Panels E/F)	time until enzyme activity (resorufin fluorescence) is evident after addition of ethoxyresorufin ([1]; HepG2 cell units on CYTODEX 3 treated in a control experiment, 10 μM ethoxyresorufin, control cells about 15-20 minutes)
[Cl-].[Li+] [LiCl]	inhibited the reduction	–	–
O=c1cc(-c2ccccc2)oc2ccc3ccccc3c12 [β-naphthoflavone]	–	high levels of P450	5 to 10 min
